Data on eight compounds can be found in patent US20090118223A1, “Novel 2'-c-methyl and 4'c-methyl nucleoside derivatives” (priority 2005, published 2009).

Data set [1] is described as follows: Liver targeting of 2′-C-methylcytidine and its prodrugs in rats: liver NTP vs plasma nucleoside (Example K). Format: in vivo. Conditions: male Sprague-Dawley rats, intraperitoneal, 5 mg/kg nucleoside equivalents. The method, then:
The liver specificity of the prodrug compounds 35.3, 35.4, and 35.5 was compared relative to the parent nucleoside, 2′-C-methylcytidine, by measuring the generation of NTP in the liver compared to nucleoside in the plasma.
Prodrug compounds 35.3, 35.4, 35.5, 38.3, 38.6, 40.1, 40.6, 40.7, 40.8, 41.2 or 2′-C-methylcytidine were administered intraperitoneally to male Sprague-Dawley rats at a dose of 5 mg/kg based on nucleoside equivalents (5 mg/kg 2′-C-methylcytidine and ˜7-10 mg/kg prodrug compounds). Plasma concentrations of 2′-C-methylcytidine and the liver concentrations of the 5′-triphosphate of 2′-C-methylcytidine were measured by LC-MS using the standard ion-pairing chromatography methods for nucleoside and triphospliate, respectively, as described in Example E. Conventional SAX HPLC-UV could not differentiate between endogenous CTP and 2′-C-methylcytidine triphosphate.

Data set [2] concerns HCV replication in human liver tissue. Nature of the data set: HCV-infected human liver slice assay (Example F). The settings on record: for amount of HCV RNA released into the culture medium from 48-72 h: treatment of HCV-infected human liver slices for 72 h. Format: cell-based. The method, then:
Inhibition of HCV replication in human liver tissue was evaluated using the following assay.
Liver from a brain-dead HCV antibody-positive human patient was perfused with ice-cold Viaspan (Dupont Pharmaceutical) preservation solution and received on ice in Viaspan.
Precision-cut liver slices of 200-250 μm thickness and […] diameter were prepared and cultured in Waymouth's cell culture medium (Gibco, Inc.) that was supplemented with 10% fetal bovine serum and 10 mL/L Fungi-Bact at 37° C., and gassed with carbogen (95% O2, 5% CO2) at 0.75 liters/min. Tissue slices were maintained in culture for 72 h. Cell culture medium containing test compound in solution was changed on a daily basis.
At appropriate times of liver slice incubation, liver slices and medium were collected for analysis of HCV RNA (tissue and medium) and nucleotide levels (NTP). All collected media and tissue slices were maintained in liquid N2 until analysis.
Medium and tissue samples were analyzed for HCV RNA levels according to published procedures (Bonacini et. al., 1999) which utilize an automated, multicycle, polymerase chain reaction (PCR)-based technique. This assay has a lower limit of detection for HCV RNA of 100 viral copies/ml.
Frozen liver slices were disrupted by using a combination of ultrasound probe sonication, Branson Sonifier 450 (Branson Ultrasonics, Danbury, Conn.) and homogenization using a Dounce conical pestle in 200 μls of 10% (v/v) perchloric acid (PCA). After a […] centrifugation at 2,500×g, the supernatants were neutralized using 3 M KOH/3 M KHCO3 and mixed thoroughly. The neutralized samples were centrifuged at 2,500 g for 5 min and NTP levels were determined by ion exchange phase HPLC (Hewlett Packard 1050) using a Whatman Partisil 5 SAX (5 μm, 4.6×250 mm) column. […] Nucleoside triphosphates were eluted from the column using a linear gradient to 80% 1 M ammonium phosphate pH 3.5/6% ethanol buffer, at a flow rate of 1.25 mL/min and detected by UV absorbance (254 nm).

Molecules are shown by their SMILES. Where a name gives a salt, the structure may show the parent alone.

In general, melting point refers to the temperature of the solid-liquid transition. `C[C@@]1(O)[C@H](O)[C@@H](COP2(=O)OCC[C@H](c3ccccc3)O2)O[C@H]1n1ccc2c(=O)[nH]c(N)nc21` (stereo partly drawn) [Compound 17.16, 2-amino-7-(cis-5′-O-[4-(R)-phenyl-2-oxo-1,3,2-dioxaphosphorinan-2-yl]-2′-C methyl-beta-D-ribofuranosyl)-7H-pyrrolo[2,3-d]pyrimidin-4(3)-one] yielded a melting point of 128 to 133 °C.

The term Cmax denotes the peak of the concentration-time curve. Consider `CC(C)[C@H](N)C(=O)O[C@@H]1[C@@H](CO[P@@]2(=O)OCC[C@@H](c3cccc(Cl)c3)O2)O[C@@H](n2ccc(N)nc2=O)[C@]1(C)O.O=C(O)C(F)(F)F` (relative stereo) [Compound 41.2, cis-5′-O-[4-(S)-(3-Chlorophenyl)-2-oxo-1,2,3-dioxaphosphorin-2-yl]-2′-C-methyl-3′-(L-valinyl)cytidine trifluoroacetic acid salt], for which the “Liver Targeting Index (Liver/Plasma)” value in data set [1] came to 302. Also, the Cmax in data set [1] (2′-C-methylcytidine) amounted to 340 nM. The “Prodrug Improvement (Fold)” value in data set [1] (liver targeting over free nucleoside) is listed as 4081 Fold.

`CC(=O)O[C@@H]1[C@@H](CO[P@@]2(=O)OCC[C@@H](c3cccc(Cl)c3)O2)O[C@@H](n2ccc3c(N)ncnc32)[C@]1(C)O` [Compound 22.2, 4-amino-7-(3′-O-acetyl-cis-5′-O-[4-(S)-(3-chlorophenyl)-2-oxo-1,3,2-dioxaphosphorinan-2-yl]-2′-C-methyl-beta-D-ribofuranosyl)-7H-pyrrolo[2,3-d]pyrimidine] yielded a melting point of 90 to 93 °C.

Compound `C[C@@]1(O)[C@H](O)[C@@H](COP2(=O)OCC[C@H](c3cccc(Cl)c3)O2)O[C@H]1n1ccc2c(=O)[nH]c(N)nc21` (stereo partly drawn) (as salt: trifluoroacetic acid salt) [Compound 17.10, 2-amino-7-(cis-5′-O-[4-(R)-(3-chlorophenyl)-2-oxo-1,3,2-dioxaphosphorinan-2-yl]-2′-C methyl-beta-D-ribofuranosyl)-7H-pyrrolo[2,3-d]pyrimidin-4(3H)-one trifluoroacetic acid salt] displayed a melting point of 170 to 180 °C.

`C[C@@]1(O)[C@H](O)[C@@H](CO[P@]2(=O)OCC[C@H](c3cccc(Cl)c3)O2)O[C@H]1n1cnc2c(=O)[nH]c(N)nc21` (relative stereo) [Compound 19, cis-5′-O-[4-(3-Chlorophenyl)-2-oxo-1,3,2-dioxaphosphorinan-2-yl]-2′-C-methylguanosine]: in data set [2] (HCV-infected human liver slices, 72 h), the “lowering viral RNA production in the culture medium, prodrug compared with nucleoside 2′-C-methylguanosine” value was “more effective”. For the same compound, in data set [2], the “amount of HCV RNA released into the culture medium from 48-72 h” value is given as “decreased”.

Take `C[C@@]1(O)[C@H](O)[C@@H](CO)O[C@H]1n1cnc2c(=O)[nH]c(N)nc21` [2′-C-methylguanosine, reference compound]: the “amount of HCV RNA released into the culture medium from 48-72 h” value in data set [2] was “decreased”.

Compound `CC(=O)O[C@@H]1[C@@H](CO[P@@]2(=O)OCCC(c3ccncc3)O2)O[C@@H](n2ccc3c(N)ncnc32)[C@]1(C)O` (some centres unmarked) [Compound 22.1] had a melting point of 182 to 185 °C.

The compound `C[C@@]1(O)[C@H](O)[C@@H](COP2(=O)OCC[C@@H](c3ccncc3)O2)O[C@H]1n1ccc2c(=O)[nH]c(N)nc21` (stereo partly drawn) [Compound 17.13, 2-amino-7-(cis-5′-O-[4-(S)-(pyridin-4-yl)-2-oxo-1,3,2-dioxaphosphorinan-2-yl]-2′-C methyl-beta-D-ribofuranosyl)-7H-pyrrolo[2,3-d]pyrimidin-4(3H)-one] came in with a melting point of 138 to 141 °C.
